In article PMC12526004, “Tiliroside Suppresses Uric Acid Production in Hepatocytes and Attenuates Purine-Induced Hyperuricemia in Male ICR Mice” (Molecules, 2025):

Columns and labels:
AML12 hepatocytes = assay: UA production by AML12 cells stimulated with UA precursors; type: cell-based; conditions: for maximum reduction of UA production: guanosine + inosine (GI mixture) 100 µM each, 2 h, vs control (0 µM); for UA production: UA precursor xanthine
Method: AML12 hepatocytes used in this study were acquired from ATCC (CRL-2254), Manassas, VA, USA. AML12 cells were maintained in DMEM/F-12 (Life Technologies, Grand Island, NY, USA) supplemented with 10% (v/v) fetal bovine serum (FBS; Hyclone, Logan, UT, USA), recombinant human insulin (5 µg/mL), human transferrin (5 µg/mL), and dexamethasone (40 ng/mL), each obtained from FUJIFILM Wako, as well as selenium (3 ng/mL, Sigma-Aldrich) and penicillin–streptomycin mixed solution (100 U/mL penicillin and 100 µg/mL streptomycin, Nacalai Tesque), under a humidified atmosphere of 5% CO2 at 37 °C. Culture of AML12 hepatocytes and measurement of UA production were conducted following a previously reported protocol.Cells were seeded at a density of 1.0 × 10^5 cells per well in 24-well plates and cultured for 72 h in complete medium, followed by 24 h in serum-free DMEM/F-12. After serum deprivation, cells were rinsed once with calcium- and magnesium-free phosphate-buffered saline [PBS (–)] and incubated in 200 µL of balanced salt solution (BSS) containing […], 5 mM KCl, 1 mM MgCl2, 0.8 mM CaCl2, 25 mM NaHCO3, 1 mM NaH2PO4, 10 mM HEPES, and 5 mM glucose. […] The final concentration of DMSO in all samples was adjusted to 0.15%. After a 2-h incubation, 200 µL of the reaction mixture was collected for UA quantification. The UA concentration in BSS was used as an indicator of UA production. Subsequently, cells were washed with PBS (–) and lysed in 300 µL of buffer containing 50 mM Tris and 1 mM sodium phosphate (pH 7.5). Lysates were sonicated and centrifuged (12,000× g, 5 min, 4 °C), and the supernatants were used for protein quantification using the Pierce™ BCA Protein Assay Kit (Thermo Fisher Scientific Inc., Waltham, MA, USA). UA levels were measured using the uricase-based Uric Acid C-Test Wako (FUJIFILM Wako). UA production was expressed as nanomoles per 2 h per milligram of cellular protein (nmol/2 h/mg protein).

[1] = test system: mice with purine-induced hyperuricemia; assay: Plasma UA in mice with purine-induced hyperuricemia; type: in vivo, male ICR mice; conditions: three days; for effect on plasma UA increase / effect on plasma UA levels: vs hyperuricemic control
Method: The antihyperuricemic effect of tiliroside was evaluated using mice with purine-induced hyperuricemia, following a previously described procedure. […] The test compounds were suspended in 0.2 mL of 0.5% CMC-Na based on the average body weight of each group. The actual volume administered was adjusted according to the individual body weight of each mouse. Prior to each administration, the mice were fasted for four hours. The negative and hyperuricemic control groups received the vehicle (0.5% CMC-Na) alone. […] GMP and IMP were dissolved in 0.2 mL of PBS (–) based on the average body weight of all mice. The injection volume was similarly adjusted according to each mouse’s body weight. These injections were performed one hour after the final oral administration of the test compounds or vehicle. The negative control group received PBS (–) alone. […] The liver and kidneys were then excised. Blood samples were centrifuged at 5000× g for 10 min at 4 °C to obtain plasma, which was stored at −80 °C until analysis. UA concentrations in plasma and liver homogenates were determined using the uricase-based Uric Acid C-Test Wako. Protein concentrations in the liver samples were measured with the Pierce™ BCA Protein Assay Kit. Liver UA levels were expressed as milligrams per gram of liver protein (mg/g protein).

OAT1 = assay: Renal mRNA expression, real-time quantitative PCR; type: in vivo, male ICR mice; conditions: three days
Method: (§1) The antihyperuricemic effect of tiliroside was evaluated using mice with purine-induced hyperuricemia, following a previously described procedure. […] The test compounds were suspended in 0.2 mL of 0.5% CMC-Na based on the average body weight of each group. The actual volume administered was adjusted according to the individual body weight of each mouse. Prior to each administration, the mice were fasted for four hours. The negative and hyperuricemic control groups received the vehicle (0.5% CMC-Na) alone. […] GMP and IMP were dissolved in 0.2 mL of PBS (–) based on the average body weight of all mice. The injection volume was similarly adjusted according to each mouse’s body weight. These injections were performed one hour after the final oral administration of the test compounds or vehicle. The negative control group received PBS (–) alone. […] The liver and kidneys were then excised. Blood samples were centrifuged at 5000× g for 10 min at 4 °C to obtain plasma, which was stored at −80 °C until analysis. To assess renal gene expression, four mice per group were selected based on plasma UA levels approximating the group mean. Total RNA was extracted from kidney tissues of the negative control, hyperuricemic model, allopurinol-treated, and high-dose tiliroside-treated groups using the Trizol-chloroform method (Thermo Fisher Scientific). Reverse transcription was performed with 1 µg of RNA using iScript reverse transcriptase (Bio-Rad, Hercules, CA, USA). Quantitative PCR was conducted using the MyiQ2 real-time PCR system (Bio-Rad), with GAPDH as the reference gene.

NPT4 = assay: Renal mRNA expression, real-time quantitative PCR; type: in vivo, male ICR mice; conditions: three days
Method: as §1

URAT1 = assay: Renal mRNA expression, real-time quantitative PCR; type: in vivo, male ICR mice; conditions: three days, vs hyperuricemic control
Method: as §1

| Structure (SMILES) | maximum reduction of UA production (AML12 hepatocytes; 1 µM) | effect on plasma UA increase ([1]; 10 mg/kg body weight oral) | renal OAT1 mRNA expression (OAT1; 10 mg/kg oral) | renal NPT4 mRNA expression (NPT4; 10 mg/kg oral) | renal URAT1 mRNA expression (URAT1; 10 mg/kg oral) | UA production (AML12 hepatocytes; 10 µM) [nmol/2 h/mg protein] | UA production (AML12 hepatocytes; 30 µM) [nmol/2 h/mg protein] | UA production (AML12 hepatocytes; 100 µM) [nmol/2 h/mg protein] | maximum reduction of UA production (AML12 hepatocytes; 100 µM) | effect on plasma UA levels ([1]; 50 mg/kg body weight oral) | effect on plasma UA levels ([1]; 100 mg/kg body weight oral) | effect on plasma UA increase ([1]; 300 mg/kg body weight oral) | lowering of plasma UA level ([1]; 300 mg/kg oral, hyperuricemic mice) | renal OAT1 mRNA expression (OAT1; 300 mg/kg oral) | renal NPT4 mRNA expression (NPT4; 300 mg/kg oral) | renal URAT1 mRNA expression (URAT1; 300 mg/kg oral) |
| --- | --- | --- | --- | --- | --- | --- | --- | --- | --- | --- | --- | --- | --- | --- | --- | --- |
| Oc1ncnc2[nH]ncc12 [Allopurinol, allopurinol, reference compound] | approximately 94.6% | significantly reduced | no significant differences | no significant differences | significantly downregulated |  |  |  |  |  |  |  |  |  |  |  |
| O=C(/C=C/c1ccc(O)cc1)OC[C@H]1O[C@@H](Oc2c(-c3ccc(O)cc3)oc3cc(O)cc(O)c3c2=O)[C@H](O)[C@@H](O)[C@@H]1O [Tiliroside, kaempferol-3-O-(6′′-p-coumaroyl)-glucoside] |  |  |  |  |  | 82.7 ± 2.4 | 45.4 ± 1.8 | 28.0 ± 1.2 | approximately 86.6% | failed to produce a statistically significant reduction | failed to produce a statistically significant reduction | significantly reduced | approximately 30% | no significant differences | no significant differences | significantly downregulated |
